Common to all, as to format: cell-based
Assay [1] deals with T1, mutant integrin CD11bE320A/CD18 (Homo sapiens, UniProt P11215, E336A).
T1 construct: expressed in transfected cells; host or cells: K562 (ATCC)
The assay can be described thus: HTS cell adhesion assay, K562 E320A cells on immobilized fibrinogen. To be noted: five point dose-response. Summed up: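 K562 cells expressing the indicated CD11b/CD18 integrin were added to wells coated with 15 μg/mL fibrinogen and incubated with compound for 30 min at 37 °C in Ca2+/Mg2+ buffer. Non-adherent cells were removed by plate inversion. Adherent cells were fixed, stained with DAPI and counted by high-content imaging, scaled from 0% (1 mM Ca2+/Mg2+) to 100% (Mn2+ activation).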

For assay [2], the target named is T2, integrin CD11c/CD18 (Homo sapiens, UniProt P20702).
T2 construct: expressed in transfected cells; host or cells: K562 (ATCC)
The assay can be described thus: HTS cell adhesion assay, K562 CD11c/CD18 cells on immobilized fibrinogen. How it is done: K562 cells stably expressing CD11c/CD18 (K562 CD11c/CD18) were generated similarly. Mutant CD11bE320A has been described previously. K562 cells stably transfected with mutant integrin CD11bE320A/CD18 (K562 E320A) were generated according to literature protocols. All cell lines were maintained in Iscove's Modified Dulbecco's Medium (IMDM) supplemented with 10% heat-inactivated fetal bovine serum, 50 IU/mL penicillin and streptomycin and 0.5 mg/mL G418.
(§1) Cell adhesion assays with immobilized ligands were performed using the general protocol previously described and as illustrated in FIG. 1 [33]. Assays with all different K562 cell lines (K562, K562 CD11b/CD18, K562 CD11c/CD18 and K562 E320A) were performed in an identical fashion. Briefly, 384-well microplates (Corning 3700) were coated with 15 μg/mL fibrinogen (Fg) ligand in PBS^++ overnight at 4° C. At the same time, anti-CD18 (IB4) mAb was also coated. Subsequently, the coated wells were washed with 1% nonfat milk in TBS at room temperature for 1 hour. Next, the wells were washed 3 times with TBS, and the coated microplates were used in the HTS assays.
(§2) K562 CD11b/CD18, K562 CD11bE320A/CD18 and K562 CD11c/CD18 cells were washed with TBS, and cells were transferred to the Fg-coated wells of microplates in the assay buffer (Ca^2+ and Mg^2+ for physiological condition, Mn^2+ as the Positive control). A 1 μL aliquot of the compounds were transferred to each washed well with multichannel pipet from the 384-well plates.
(§3) The assay plates were incubated at 37° C. in the presence of small-molecule compounds for 30 min. To dislodge the non-adherent cell, the assay plates were gently inverted and kept in inverted position for 20 min at room temperature.
(§4) The cells were fixed with 37% formaldehyde in a small volume and the plates were kept inverted for 1 h. Upon the fixation, the solutions in the well were discarded. Next, the cells were fluorescently labeled with DAPI (0.5 μM final in TBS with 0.1% Triton X-100) and the quantitated with “Opera High Content Screening System” (Perkin Elmer).
Cell-adhesion under positive and negative control conditions was used to define the activity scale; signal corresponding to the number of non-small molecule treated cells adherent in activating buffer condition (in the presence of Mn^2+ ions as agonist, PC) was considered maximum (100% binding) and the signal corresponding to the number of non-small molecule treated cells adherent in basal buffer condition (in the presence of 1 mM each of Ca^2+ and Mg^2+, NC) was considered minimum (0% binding). […]
The compounds were diluted in DMSO by the final concentration 10 μM, 5 μM, 2.5 μM, 1.25 μM and 0.625 μM and stocked as sealed in 384-well plates at −80° C.

In assay [3] the target is T3, wild-type integrin CD11b/CD18 (Homo sapiens, UniProt P11215).
T3 construct: expressed in transfected cells; host or cells: K562 (ATCC)
The assay can be described thus: HTS cell adhesion assay, K562 CD11b/CD18 cells on immobilized fibrinogen. The method, then: K562 cells stably expressing CD11c/CD18 (K562 CD11c/CD18) were generated similarly. […] K562 cells stably transfected with mutant integrin CD11bE320A/CD18 (K562 E320A) were generated according to literature protocols. All cell lines were maintained in Iscove's Modified Dulbecco's Medium (IMDM) supplemented with 10% heat-inactivated fetal bovine serum, 50 IU/mL penicillin and streptomycin and 0.5 mg/mL G418.
as §1, §2, §3, §4
Cell-adhesion under positive and negative control conditions was used to define the activity scale; signal corresponding to the number of non-small molecule treated cells adherent in activating buffer condition (in the presence of Mn^2+ ions as agonist, PC) was considered maximum (100% binding) and the signal corresponding to the number of non-small molecule treated cells adherent in basal buffer condition (in the presence of 1 mM each of Ca^2+ and Mg^2+, NC) was considered minimum (0% binding).

The mark [4] stands for this setting: Table 3, adhesion to fibrinogen.
[5] abbreviates: Table 4, adhesion to fibrinogen.
Setting [6] is: Table 3, K562 CD11c/CD18 cells, adhesion to fibrinogen, dose-response.
Where [7] appears, read: Table 4, K562 CD11c/CD18 cells, adhesion to fibrinogen, dose-response.
The mark [8] stands for this setting: Table 4, adhesion to fibrinogen, dose-response.
[9] abbreviates: Table 3, adhesion to fibrinogen, 5-point dose-response.

Like-named read-outs stand apart in the source and are kept apart here.

`O=C(Cn1c(=O)oc2cc(S(=O)(=O)N3CCCC3)ccc21)NC1CCCc2ccccc21` (stereo not drawn) [Compound 5308150]: the EC50 in assay [1] (setting [4]) and in assay [1] (setting [5]) was 1.26 µM throughout. For the same compound, the results for the “EC50 CD11c/CD18” value in assay [2] (setting [6]) and in assay [2] (setting [7]) were “Very Low” and “N/A Very Low”, respectively. The “EC50 CD11b/CD18” value in assay [3] (setting [8]) is “N/A Very Low”.
As for `O=C(CN1C(=O)c2ccccc2C1=O)Nc1ccc(-c2nc3ccccc3o2)cc1` [Compound 1255636], the EC50 in assay [1] (setting [4]) amounted to 0.678 µM. Also, the “EC50 CD11c/CD18” value in assay [2] (setting [7]) is reported as “N/A Very Low”. Also, the “EC50 CD11b/CD18” value in assay [3] (setting [9]) is “Very Low”; in assay [3] (setting [8]) it was “N/A Very Low”.
For the compound `O=C(O)CCN1C(=O)/C(=C\c2ccc(-c3nc4ccccc4s3)o2)SC1=S` [Compound 2030970], the “EC50 E320A” value in assay [1] (setting [4]) is reported as “Very Low”. Also, the “EC50 CD11c/CD18” value in assay [2] (setting [7]) was “N/A Very Low”. Further, the “EC50 CD11b/CD18” value is “Very Low” in assay [3] (setting [9]) and “N/A Very Low” in assay [3] (setting [8]).
With `O=C(O)CCN1C(=O)/C(=C/c2ccc(-c3nc4ccccc4s3)o2)SC1=S` [Compound 2030972], the EC50 in assay [1] (setting [4]) and in assay [1] (setting [5]) was 6.69 µM throughout. Moreover, the “EC50 CD11c/CD18” value in assay [2] (setting [6]) is on record as “Very Low”; in assay [2] (setting [7]), “N/A Very Low”. The “EC50 CD11b/CD18” value is “Very Low” in assay [3] (setting [9]) and “N/A Very Low” in assay [3] (setting [8]).
For the compound `C=CCn1c(SCC(=O)c2[nH]c(C)c(C(=O)OC)c2C)nc2scc(-c3ccc(OC)c(OC)c3)c2c1=O` [Compound 1745635], the EC50 in assay [1] (setting [4]) and in assay [1] (setting [5]) was 3.71 µM throughout. Further, the results for the “EC50 CD11c/CD18” value in assay [2] (setting [6]) and in assay [2] (setting [7]) were “Very low” and “N/A Very Low”, respectively. Further, in assay [3] (setting [8]), the “EC50 CD11b/CD18” value was “N/A Very Low”.
In the case of `CCOC(=O)c1c(-n2c(C)cc(C=C3C(=O)NC(=S)NC3=O)c2C)sc2c1CCCC2` [Compound 1494229], the EC50 in assay [1] (setting [4]) amounted to 6.53 µM; in assay [1] (setting [5]), 6.53 µM; in assay [2] (Table 4, K562 CD11c/CD18 cells, adhesion to fibrinogen, dose-response, read-out: EC50 CD11c/CD18), 6.72 µM.
`Nc1c(C(=O)Nc2nccs2)sc2nc(-c3cccs3)cc(C(F)(F)F)c12` [Compound 2252798]: the EC50 in assay [1] (setting [4]) worked out at 4.1 µM; in assay [2], 4.06 µM.
On to `COCCCNC(=O)c1c(N)n(/N=C/c2cccs2)c2nc3ccccc3nc12` [Compound 6880740], for which the EC50 in assay [1] (setting [4]) was 4.99 µM; in assay [2], 2.6 µM.
Taken in the same sequence, the figures for `Cc1cc(C)cc(-n2c(N)c(C(=O)Nc3c(C)n(C)n(-c4ccccc4)c3=O)c3nc4ccccc4nc32)c1` [Compound 1967927] were 2.67 µM and 2.49 µM.
Taken in the same sequence, the figures for `COc1ccc(/C=C2/SC(=O)N(CC(=O)Nc3cc(C)on3)C2=O)cc1OC` [Compound 1554642] were 7.9 µM and 5.26 µM.
Take `CCn1c(=NC(=O)c2ccc(N3C(=O)CCC3=O)cc2)sc2c(OC)ccc(OC)c21` [Compound 2150886]: the EC50 turned out to be 5.05 µM in assay [1] (setting [4]) and 2.13 µM in assay [2].
Consider `O=C(Nc1nnc(-c2ccccc2SCc2ccccc2)s1)Nc1ccccc1F` [Compound 1964957], for which the EC50 in assay [1] (setting [4]) was 6.47 µM; in assay [2], 10.6 µM.
For the compound `Cc1ccc(-c2ccc(/C=C(\C#N)C(=O)Nc3cc(C)nn3-c3ccccc3)o2)cc1` [Compound 1554430], the results for the EC50 in assay [1] (setting [4]) and in assay [2] were 4.68 µM and 1.3 µM, respectively.
Taken in the same sequence, the figures for `N#Cc1sc2nc(-c3ccccc3)cc(-c3ccco3)c2c1N` [Compound 629074] were 5.16 µM and 2.36 µM.
Taken in the same sequence, the figures for `COc1ccccc1NC(=O)c1sc2ncn(Cc3ccc(C)cc3)c(=O)c2c1C` [Compound 1078286] were 6.92 µM and 2.5 µM.
